Laboratory results: patent US4971965A, “Antibiotics TAN-1057” (Takeda Chemical Industries, Ltd., priority 1988, dated 1990)
Converted amounts (≈) assume the structure as drawn. Where a name gives a salt, the structure may show the parent alone.

Experiments:
[1] = system: Acinetobacter calcoaceticus IFO 12552; assay type: cell-based; conditions: IFO12552, agar dilution, DY medium, pH unadjusted, approx. 10^6 CFU/ml, read-out: Minimum Inhibitory Conc. (MIC)
Method: (§1) (Note 1) Measurement was conducted by employing a medium consisting of DY
(§2) medium [Bacto Antibiotic Medium 3 (Difco Laboratories, USA)(17.5 g), Bact
(§3) yeast extract(Difco Laboratories, USA)(5.0 g) and distilled water(pH
(§4) unadjusted)(1000 ml)], using approximately 10^6 colony forming unit/m
(§5) of inoculum, by means of the agar dilution method.

[2] = system: Aeromonas caviae NCW; assay type: cell-based; conditions: agar dilution, DY medium, pH unadjusted, approx. 10^6 CFU/ml, read-out: Minimum Inhibitory Conc. (MIC)
Method: as §1, §2, §3, §4, §5

[3] = system: Bacillus cereus FDA 5; assay type: cell-based; conditions: FDA5, agar dilution, DY medium, pH unadjusted, approx. 10^6 CFU/ml, read-out: Minimum Inhibitory Conc. (MIC)
Method: as §1, §2, §3, §4, §5

[4] = system: Bacillus megaterium IFO 12108; assay type: cell-based; conditions: Priestia megaterium, IFO12108; agar dilution; DY medium, pH unadjusted; approx. 10^6 CFU/ml; read-out: Minimum Inhibitory Conc. (MIC)
Method: as §1, §2, §3, §4, §5

[5] = system: Bacillus subtilis NIHJ PCI 219; assay type: cell-based; conditions: agar dilution, DY medium, pH unadjusted, approx. 10^6 CFU/ml, read-out: Minimum Inhibitory Conc. (MIC)
Method: as §1, §2, §3, §4, §5

[6] = system: Escherichia coli LD-2; assay type: cell-based; conditions: LD2, agar dilution, DY medium, pH unadjusted, approx. 10^6 CFU/ml, read-out: Minimum Inhibitory Conc. (MIC)
Method: as §1, §2, §3, §4, §5

[7] = system: Escherichia coli NIHJ JC 2; assay type: cell-based; conditions: NIHJJC2, agar dilution, DY medium, pH unadjusted, approx. 10^6 CFU/ml, read-out: Minimum Inhibitory Conc. (MIC)
Method: as §1, §2, §3, §4, §5

[8] = system: Klebsiella pnemoniae IFO 3317; assay type: cell-based; conditions: IFO3317, agar dilution, DY medium, pH unadjusted, approx. 10^6 CFU/ml, read-out: Minimum Inhibitory Conc. (MIC)
Method: as §1, §2, §3, §4, §5

[9] = system: Micrococcus luteus IFO 12708; assay type: cell-based; conditions: IFO12708, agar dilution, DY medium, pH unadjusted, approx. 10^6 CFU/ml, read-out: Minimum Inhibitory Conc. (MIC)
Method: as §1, §2, §3, §4, §5

[10] = system: Proteus vulgaris IFO 3988; assay type: cell-based; conditions: IFO3988, agar dilution, DY medium, pH unadjusted, approx. 10^6 CFU/ml, read-out: Minimum Inhibitory Conc. (MIC)
Method: as §1, §2, §3, §4, §5

[11] = system: Pseudomonas aeruginosa IFO 3080; assay type: cell-based; conditions: IFO3080, agar dilution, DY medium, pH unadjusted, approx. 10^6 CFU/ml, read-out: Minimum Inhibitory Conc. (MIC)
Method: as §1, §2, §3, §4, §5

[12] = system: Salmonella typhimurium IFO 12529; assay type: cell-based; conditions: Salmonella enterica; agar dilution; DY medium, pH unadjusted; approx. 10^6 CFU/ml; read-out: Minimum Inhibitory Conc. (MIC)
Method: as §1, §2, §3, §4, §5

[13] = system: Staphylococcus aureus FDA 209P; assay type: cell-based; conditions: FDA209P, agar dilution, DY medium, pH unadjusted, approx. 10^6 CFU/ml, read-out: Minimum Inhibitory Conc. (MIC)
Method: as §1, §2, §3, §4, §5

[14] = system: Staphylococcus epidermidis IFO 3762; assay type: cell-based; conditions: IFO3762, agar dilution, DY medium, pH unadjusted, approx. 10^6 CFU/ml, read-out: Minimum Inhibitory Conc. (MIC)
Method: as §1, §2, §3, §4, §5

[15] = system: Streptococcus faecalis IFO 3989; assay type: cell-based; conditions: Enterococcus faecalis, IFO3989; agar dilution; DY medium, pH unadjusted; approx. 10^6 CFU/ml; read-out: Minimum Inhibitory Conc. (MIC)
Method: as §1, §2, §3, §4, §5

[16] = Conversion in aqueous solution; assay type: physicochemical; conditions: for conversion of TAN-1057C and D: especially aqueous alkaline solution, by HPLC
Excerpt: For example, in case that the mixture of TAN-1057A and B is isolated as crystals of the sulfate, the ratio of TAN-1057A and B is about 6 to 8:4 to 2.
The term "Antibiotics TAN-1057" in the present specification includes also a mixture which contains TAN-1057A, B, C and D in an optional combination and an optional ratio thereof.

[17] = Solubility; assay type: physicochemical
[18] = Acidity or basicity; assay type: physicochemical

Structure (SMILES) | MIC [1] | MIC [2] | MIC [3] | MIC [4] | MIC [5] | MIC [7] | MIC [8] | MIC [9] | MIC [10] | MIC [11] | MIC [12] | MIC [13] | MIC [14] | MIC [15] | Solubility ([17]; acetone) | Solubility ([17]; diethyl ether) | Solubility ([17]; dimethylsulfoxide) | Solubility ([17]; ethyl acetate) | Solubility ([17]; methanol) | MIC [6] | also measured
CN1C(=O)C[C@H](CCCNC(=N)N)NC(=O)[C@H]1CNC(=N)NC(N)=O [TAN-1057C dihydrochloride] |  |  |  |  |  |  |  |  |  |  |  |  |  |  | Sparingly soluble | Sparingly soluble | Soluble | Sparingly soluble | Soluble |  | Solubility ([17]; water): Readily soluble; Acidity or basicity [18]: neutral
CN1C(=O)C[C@H](CCCNC(=N)N)NC(=O)[C@H]1CNC(=N)NC(N)=O [TAN-1057C] | > 100 µg/mL | 50 µg/mL (≈ 141 µM) | > 100 µg/mL | > 100 µg/mL | > 100 µg/mL | > 100 µg/mL | > 100 µg/mL | 12.5 µg/mL (≈ 35.2 µM) | > 100 µg/mL | > 100 µg/mL | > 100 µg/mL | 50 µg/mL (≈ 141 µM) | 6.25 µg/mL (≈ 17.6 µM) | 50 µg/mL (≈ 141 µM) |  |  |  |  |  | 50 µg/mL (≈ 141 µM) | conversion of TAN-1057C and D [16]: converted into TAN-1057B

Continued, in another order:

MIC [1] | MIC [2] | MIC [3] | MIC [4] | MIC [5] | MIC [7] | MIC [8] | MIC [9] | MIC [10] | MIC [11] | MIC [12] | MIC [13] | MIC [14] | MIC [15] | Solubility ([17]; acetone) | Solubility ([17]; diethyl ether) | Solubility ([17]; dimethylsulfoxide) | Solubility ([17]; ethyl acetate) | Solubility ([17]; methanol) | Structure (SMILES) | MIC [6] | also measured
100 µg/mL (≈ 281 µM) | 25 µg/mL (≈ 70.3 µM) | 100 µg/mL (≈ 281 µM) | 50 µg/mL (≈ 141 µM) | 50 µg/mL (≈ 141 µM) | > 100 µg/mL | > 100 µg/mL | 12.5 µg/mL (≈ 35.2 µM) | > 100 µg/mL | > 100 µg/mL | > 100 µg/mL | 25 µg/mL (≈ 70.3 µM) | 3.13 µg/mL (≈ 8.81 µM) | 50 µg/mL (≈ 141 µM) |  |  |  |  |  | CN(C(=O)C[C@@H](N)CCCNC(=N)N)[C@@H]1CNC(NC(N)=O)=NC1=O [TAN-1057B] | 25 µg/mL (≈ 70.3 µM) | conversion of TAN-1057A and B into each other ([16]; room temperature): converted easily each other
 |  |  |  |  |  |  |  |  |  |  |  |  |  | Sparingly soluble | Sparingly soluble | Soluble | Sparingly soluble | Soluble | CN1C(=O)C[C@H](CCCNC(=N)N)NC(=O)[C@@H]1CNC(=N)NC(N)=O [TAN-1057D dihydrochloride] |  | Solubility ([17]; water): Readily soluble; Acidity or basicity [18]: neutral
25 µg/mL (≈ 70.3 µM) | 6.25 µg/mL (≈ 17.6 µM) | 25 µg/mL (≈ 70.3 µM) | 12.5 µg/mL (≈ 35.2 µM) | 12.5 µg/mL (≈ 35.2 µM) | > 100 µg/mL | > 100 µg/mL | 3.13 µg/mL (≈ 8.81 µM) | > 100 µg/mL | > 100 µg/mL | > 100 µg/mL | 6.25 µg/mL (≈ 17.6 µM) | 0.78 µg/mL (≈ 2.19 µM) | 12.5 µg/mL (≈ 35.2 µM) |  |  |  |  |  | CN1C(=O)C[C@H](CCCNC(=N)N)NC(=O)[C@@H]1CNC(=N)NC(N)=O [TAN-1057D] | 12.5 µg/mL (≈ 35.2 µM) | conversion of TAN-1057C and D [16]: converted into TAN-1057B and TAN-1057A, respectively
